Patent publication US12655116B2, “Substituted isophthalic acid diamides” (Bayer Aktiengesellschaft, priority 2020, dated 2026)

Legend:
SETVI [1] = assay: Post-emergence herbicidal action against SETVI; type: in vivo, Setaria viridis; conditions: Setaria viridis, 504 h; for pest or weed control at 20 g/ha: dosage 20 g/ha
Summary of the method: (§1)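 Percent herbicidal action is rated by eye about 3 weeks after treatment against untreated controls, where 100% means dead plants and 0% means like controls. Plants in sandy loam are sprayed on green parts at the one-leaf stage with aqueous WP or EC preparations at 600 to 800 l/ha plus 0.2% wetting agent.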

SETVI [2] = assay: Pre-emergence herbicidal action against SETVI; type: in vivo, Setaria viridis; conditions: Setaria viridis, 504 h; for pest or weed control at 80 g/ha: dosage 80 g/ha
Summary of the method: (§2)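 Seeds sown in sandy loam, soil-covered; compound sprayed on soil surface pre-emergence. Application: WP/EC, 600–800 l/ha, 0.2% wetting agent. Readout: visual % damage at 3 weeks.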

DIGSA [3] = assay: Pre-emergence herbicidal action against DIGSA; type: in vivo, Digitaria sanguinalis; conditions: Digitaria sanguinalis, 504 h; for pest or weed control at 20 g/ha: dosage 20 g/ha; for pest or weed control at 80 g/ha: dosage 80 g/ha
Summary of the method: as §2

AMARE [4] = assay: Pre-emergence herbicidal action against AMARE; type: in vivo, Amaranthus retroflexus; conditions: Amaranthus retroflexus, 504 h, scored visually after 3 weeks vs untreated controls, 100% = plants have died, 0% = like control plants
Summary of the method: as §2

AVEFA [5] = assay: Post-emergence herbicidal action against AVEFA; type: in vivo, Avena fatua; conditions: Avena fatua, 504 h, 20 g/ha, visual assessment about 3 weeks after treatment, 100% = plants have died, 0% = like control plants
Summary of the method: as §1

LOLRI [6] = assay: Pre-emergence herbicidal action against LOLRI; type: in vivo, Lolium rigidum; conditions: Lolium rigidum, 504 h, 80 g/ha
Summary of the method: as §2

ECHCG [7] = assay: Pre-emergence herbicidal action against ECHCG; type: in vivo, Echinochloa crus-galli; conditions: Echinochloa crus-galli, 504 h
Summary of the method: as §2

ALOMY [8] = assay: Pre-emergence herbicidal action against ALOMY; type: in vivo, Alopecurus myosuroides; conditions: Alopecurus myosuroides, 504 h, pre-emergence; for pest or weed control at 80 g/ha: scored visually after 3 weeks vs untreated controls (100% = plants have died, 0% = like control plants); for pest or weed control at 20 g/ha: scored visually after 3 weeks, 100% = plants have died, 0% = like control plants
Summary of the method: as §2

MATIN [9] = assay: Pre-emergence herbicidal action against MATIN; type: in vivo, Matricaria inodora; conditions: Tripleurospermum inodorum, 504 h; for pest or weed control at 20 g/ha: dosage 20 g/ha; for pest or weed control at 80 g/ha: dosage 80 g/ha
Summary of the method: as §2

AVEFA [10] = assay: Pre-emergence herbicidal action against AVEFA; type: in vivo, Avena fatua; conditions: Avena fatua, 504 h; 80 g/ha, pre-emergence
Summary of the method: as §2

LOLRI [11] = assay: Post-emergence herbicidal action against LOLRI; type: in vivo, Lolium rigidum; conditions: Lolium rigidum, 504 h, dosage 20 g/ha
Summary of the method: as §1

ABUTH [12] = assay: Post-emergence herbicidal action against ABUTH; type: in vivo, Abutilon theophrasti; conditions: Abutilon theophrasti, 504 h, visual assessment about 3 weeks after treatment vs untreated controls; for pest or weed control at 20 g/ha: dosage 20 g/ha
Summary of the method: as §1

AMARE [13] = assay: Post-emergence herbicidal action against AMARE; type: in vivo, Amaranthus retroflexus; conditions: Amaranthus retroflexus, 504 h, 20 g/ha, visual assessment about 3 weeks after treatment, 100% = plants have died, 0% = like control plants
Summary of the method: as §1

PHBPU [14] = assay: Post-emergence herbicidal action against PHBPU; type: in vivo, Pharbitis purpurea; conditions: Ipomoea purpurea, 504 h, dosage 20 g/ha
Summary of the method: as §1

POLCO = assay: Post-emergence herbicidal action against POLCO; type: in vivo, Polygonum convolvulus; conditions: Fallopia convolvulus, 504 h, dosage 20 g/ha
Summary of the method: as §1

PHBPU [15] = assay: Pre-emergence herbicidal action against PHBPU; type: in vivo, Pharbitis purpurea; conditions: Ipomoea purpurea, 504 h, dosage 80 g/ha
Summary of the method: as §2

VIOTR [16] = assay: Post-emergence herbicidal action against VIOTR; type: in vivo, Viola tricolor; conditions: Viola tricolor, 504 h
Summary of the method: as §1

MATIN [17] = assay: Post-emergence herbicidal action against MATIN; type: in vivo, Matricaria inodora; conditions: Tripleurospermum inodorum, 504 h, dosage 20 g/ha
Summary of the method: as §1

ALOMY [18] = assay: Post-emergence herbicidal action against ALOMY; type: in vivo, Alopecurus myosuroides; conditions: Alopecurus myosuroides, 504 h, visual assessment about 3 weeks after treatment vs untreated controls; for pest or weed control at 5 g/ha: dosage 5 g/ha; for pest or weed control at 20 g/ha: dosage 20 g/ha
Summary of the method: as §1

ABUTH [19] = assay: Pre-emergence herbicidal action against ABUTH; type: in vivo, Abutilon theophrasti; conditions: Abutilon theophrasti, 504 h; for pest or weed control at 80 g/ha: scored visually after 3 weeks vs untreated controls (100% = plants have died, 0% = like control plants); for pest or weed control at 20 g/ha: dosage 20 g/ha, scored visually after 3 weeks vs untreated controls, 100% = plants have died, 0% = like control plants, read-out: Pre-emergence action against ABUTH (herbicidal activity in percent)
Summary of the method: as §2

ECHCG [20] = assay: Post-emergence herbicidal action against ECHCG; type: in vivo, Echinochloa crus-galli; conditions: Echinochloa crus-galli, 504 h, dosage 20 g/ha
Summary of the method: as §1

VERPE [21] = assay: Post-emergence herbicidal action against VERPE; type: in vivo, Veronica persica; conditions: Veronica persica, 504 h, 20 g/ha
Summary of the method: as §1

VIOTR [22] = assay: Pre-emergence herbicidal action against VIOTR; type: in vivo, Viola tricolor; conditions: Viola tricolor, 504 h; for pest or weed control at 80 g/ha: dosage 80 g/ha
Summary of the method: as §2

VERPE [23] = assay: Pre-emergence herbicidal action against VERPE; type: in vivo, Veronica persica; conditions: Veronica persica, 504 h
Summary of the method: as §2

DIGSA [24] = assay: Post-emergence herbicidal action against DIGSA; type: in vivo, Digitaria sanguinalis; conditions: Digitaria sanguinalis, 504 h
Summary of the method: as §1

SMILES	pest or weed control at 20 g/ha (SETVI [1]) [%]	pest or weed control at 80 g/ha (SETVI [2]) [%]	pest or weed control at 20 g/ha (DIGSA [3]) [%]	pest or weed control at 80 g/ha (DIGSA [3]) [%]	pest or weed control at 20 g/ha (AMARE [4]) [%]	pest or weed control at 80 g/ha (AMARE [4]) [%]	pest or weed control at 20 g/ha (AVEFA [5]) [%]	pest or weed control at 80 g/ha (LOLRI [6]) [%]	pest or weed control at 80 g/ha (ECHCG [7]) [%]	pest or weed control at 80 g/ha (ALOMY [8]) [%]	pest or weed control at 20 g/ha (ALOMY [8]) [%]	pest or weed control at 20 g/ha (MATIN [9]) [%]	pest or weed control at 80 g/ha (MATIN [9]) [%]	pest or weed control at 80 g/ha (AVEFA [10]) [%]	pest or weed control at 20 g/ha (LOLRI [11]) [%]	pest or weed control at 20 g/ha (ABUTH [12]) [%]	pest or weed control at 20 g/ha (AMARE [13]) [%]	pest or weed control at 20 g/ha (POLCO) [%]	pest or weed control at 5 g/ha (VIOTR [16]) [%]	pest or weed control at 20 g/ha (VIOTR [16]) [%]	also measured
CCNC(=O)c1c(Br)ccc(C(=O)Nc2nnnn2C)c1Cl [Example 1-178, 4-bromo-2-chloro-N^3-ethyl-N^1-(1-methyl-1H-tetrazol-5-yl)isophthalamide]	90	100	100	100	100	100	80	80	100	100	80	90	100	100	80	80	100	80	80	80	pest or weed control at 20 g/ha (ECHCG [7]; 20 g/ha): 80%; pest or weed control at 5 g/ha (ABUTH [12]; dosage 5 g/ha): 80%; pest or weed control at 20 g/ha (PHBPU [14]): 80%; pest or weed control at 80 g/ha (PHBPU [15]): 80%; pest or weed control at 20 g/ha (MATIN [17]): 90%; pest or weed control at 5 g/ha (ALOMY [18]): 90%; pest or weed control at 20 g/ha (ALOMY [18]): 100%; pest or weed control at 80 g/ha (ABUTH [19]): 100%; pest or weed control at 20 g/ha (ABUTH [19]): 90%; pest or weed control at 20 g/ha (ECHCG [20]): 90%; pest or weed control at 20 g/ha (VERPE [21]): 80%; pest or weed control at 80 g/ha (VIOTR [22]): 100%; pest or weed control at 20 g/ha (VERPE [23]; dosage 20 g/ha): 80%; pest or weed control at 80 g/ha (VERPE [23]; dosage 80 g/ha): 80%
Cn1nnnc1NC(=O)c1ccc(Br)c(C(=O)NC2CC2)c1Cl [Example 1-179]	90	100	100	100	100	100	90	90	100	100	80	90	100	100	80	80	100	80	80	90	pest or weed control at 5 g/ha (SETVI [1]; dosage 5 g/ha): 90%; pest or weed control at 20 g/ha (SETVI [2]; dosage 20 g/ha): 80%; pest or weed control at 20 g/ha (MATIN [17]): 80%; pest or weed control at 5 g/ha (ALOMY [18]): 90%; pest or weed control at 20 g/ha (ALOMY [18]): 90%; pest or weed control at 80 g/ha (ABUTH [19]): 100%; pest or weed control at 20 g/ha (ABUTH [19]): 80%; pest or weed control at 5 g/ha (DIGSA [24]; 5 g/ha): 90%; pest or weed control at 20 g/ha (DIGSA [24]; 20 g/ha): 90%; pest or weed control at 20 g/ha (ECHCG [20]): 90%; pest or weed control at 20 g/ha (VERPE [21]): 80%; pest or weed control at 20 g/ha (VIOTR [22]; dosage 20 g/ha): 100%; pest or weed control at 80 g/ha (VIOTR [22]): 100%
